Data taken from US5011952A, “Phospholipase A2 inhibitor” (Shionogi & Co., Ltd., priority 1989, dated 1991).

Columns and labels:
[1] = Solubility in solvents; assay type: physicochemical
[2] = molecular target: T1, PLA2 released from thrombin-stimulated rat platelets (Rattus norvegicus, UniProt P14423); test: PLA2 inhibitory activity, rat platelet-derived PLA2; assay type: biochemical; conditions: for inhibitory concentrations of α-thielocin versus β-thielocin: isomers equilibrated in the reaction solution
T1 construct: PLA2 released from thrombin-stimulated rat platelets; from tissue
T1 sequence (P14423 22-146): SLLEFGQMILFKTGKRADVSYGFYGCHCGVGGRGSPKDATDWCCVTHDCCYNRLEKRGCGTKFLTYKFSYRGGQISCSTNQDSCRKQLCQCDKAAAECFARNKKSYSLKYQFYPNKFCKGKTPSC
Protocol: PLA2 inhibitory activities of thielocin were determined according to the following procedure.
PLA2 released from thrombin-stimulated rat platelets was prepared by immuno-affinity chromatography using antibody MD 7.1-coupled Sepharose (Murakami et. al, J. Biochem 104: 884-888, 1988). The standard assay conditions included, 250 μl of Tris-HCl buffer (100 mM, pH 7.4), CaCl2 (3 mM), 40 μM [^14 C] phosphatidylethanolamine and enzyme. The reaction was started by the addition of the enzyme solution. Following incubation at 37° C. for 20 min the reactions were terminated by addition of 1.25 ml of Dole's reagent (Dole, V. P. & H, Meinerts, J. Biol. Chem 235: 2595-2599, 1960). Then released free fatty acid was extracted, and counted in Liquiflour (Du Pont-New England Nuclear) to determine the release of the radioactivity. Inhibition activity is expressed as percent of enzyme control.

[3] = molecular target: T2, PLA2 derived from porcine pancreas (Sus scrofa, UniProt P00592); test: PLA2 inhibitory activity, porcine pancreas-derived PLA2; assay type: biochemical; conditions: read-out: concentration required for exhibiting 50 % inhibitory activity
T2 construct: porcine-derived PLA2; from tissue; host or cells: porcine pancreas

[4] = system: snake venom-derived PLA2; test: PLA2 inhibitory activity, snake venom-derived PLA2; assay type: biochemical

T2 sequence (P00592 23-146): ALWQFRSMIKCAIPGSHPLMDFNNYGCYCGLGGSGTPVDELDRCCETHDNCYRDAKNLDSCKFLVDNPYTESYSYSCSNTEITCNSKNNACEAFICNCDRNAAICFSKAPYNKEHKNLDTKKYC

COc1c(C)c(OC(=O)c2c(C)c(C)c(OC(=O)C3=C(C)C(C)(O)C4(O)Oc5c(C)c(OC)c(C(=O)Oc6c(C)c(C)c(C(=O)O)c(OC)c6C)c(C)c5CC4(C)C3=O)c(C)c2OC)c(C)c(C)c1C(=O)O (stereo not drawn) [Thielocin α, α-thielocin]
Solubility ([1]; acetone): Soluble
Solubility ([1]; acetonitrile): Soluble
Solubility ([1]; chloroform): Soluble
Solubility ([1]; dimethylsulfoxide): Soluble
Solubility ([1]; ethanol): slightly soluble
Solubility ([1]; ethyl acetate): Soluble
Solubility ([1]; ethyl ether): sparingly soluble or insoluble
Solubility ([1]; hexane): sparingly soluble or insoluble
Solubility ([1]; methanol): slightly soluble
Solubility ([1]; petroleum ether): sparingly soluble or insoluble
Solubility ([1]; water): sparingly soluble or insoluble
inhibitory concentrations of α-thielocin versus β-thielocin [2]: not distinguished

COc1c(C)c(OC(=O)c2c(C)c(C)c(OC(=O)C3=C(C)C(C)(O)C4(O)Oc5c(C)c(OC)c(C(=O)Oc6c(C)c(C)c(C(=O)O)c(OC)c6C)c(C)c5CC4(C)C3=O)c(C)c2OC)c(C)c(C)c1C(=O)O (stereo not drawn) [thielocin]
IC50 [3]: 47.1 µM
concentration required for exhibiting 50 % inhibitory activity [4]: 10 µg/mL
IC50 ([2]; rat platelet-derived PLA2, [14C]phosphatidylethanolamine substrate, 37° C., 20 min, read-out: concentration required for exhibiting 50 % inhibitory activity): 0.00501 µM

COc1c(C)c(OC(=O)c2c(C)c(C)c(OC(=O)C3=C(C)C(C)(O)C4(O)Oc5c(C)c(OC)c(C(=O)Oc6c(C)c(C)c(C(=O)O)c(OC)c6C)c(C)c5CC4(C)C3=O)c(C)c2OC)c(C)c(C)c1C(=O)O (stereo not drawn) [Thielocin β, β-thielocin]
Solubility ([1]; acetone): slightly soluble
Solubility ([1]; acetonitrile): slightly soluble
Solubility ([1]; chloroform): slightly soluble
Solubility ([1]; dimethylsulfoxide): Soluble
Solubility ([1]; ethanol): slightly soluble
Solubility ([1]; ethyl acetate): slightly soluble
Solubility ([1]; ethyl ether): sparingly soluble or insoluble
Solubility ([1]; hexane): sparingly soluble or insoluble
Solubility ([1]; methanol): slightly soluble
Solubility ([1]; petroleum ether): sparingly soluble or insoluble
Solubility ([1]; water): sparingly soluble or insoluble
inhibitory concentrations of α-thielocin versus β-thielocin [2]: not distinguished
